No end group written: not given here.
Tests used:
C2C12 cells = test: Indirect immunofluorescence (MyoD, MYH3) and fusion index; format: cell-based
Experimental: Differentiated C2C12 cells cultured on coverslips were fixed at room temperature for 10 min with PBS containing 3.7% paraformaldehyde. Next, the samples were permeabilized with 0.25% Triton X-100/PBS for 10 min, blocked with 1% BSA/PBS, and incubated overnight with primary antibodies, anti-MyoD (Santa Cruz, sc-377460) and anti-MYH3 (Santa Cruz, sc-53091), followed by washing with PBS. The samples were then incubated for 1 h Alexa Fluor 488–conjugated goat anti-mouse IgG H&L (abcam, ab150113). Nuclei were stained with 4′,6-diamidino-2-phenylindole (DAPI; blue) for 5 min. The coverslips were mounted onto glass slides using an aqueous mounting solution (Biomeda, Foster City, CA, USA) and left to dry. Images were captured using a confocal laser-scanning microscope (LEICA, Wetzlar, Germany) at ×200 and ×400 magnifications for MYH3 and MyoD, respectively. The fluorescence intensity of each marker was quantified using ImageJ. For fusion index analysis, MYH3-stained images were used to quantify myotube formation by counting the number of DAPI-positive nuclei located within MYH3-positive multinucleated myotubes (defined as MYH3-positive cells containing ≥2 nuclei) and the total number of nuclei per field. Fusion index (%) was calculated as (nuclei within MYH3-positive multinucleated myotubes/total nuclei) × 100. Fusion index was calculated from multiple randomly selected fields captured under identical imaging settings and quantified in ImageJ.

[1] = molecular target: T1, human recombinant Myostatin-Fc protein (Mus musculus, UniProt O08689); test: Surface plasmon resonance (SPR) analysis, Biacore T200; format: binding; settings: 3.125 μM to 200 μM, 25 °C, HBS-EP
T1 construct: purchased Sino Biological 50441-M01H
T1 sequence (O08689 268-376): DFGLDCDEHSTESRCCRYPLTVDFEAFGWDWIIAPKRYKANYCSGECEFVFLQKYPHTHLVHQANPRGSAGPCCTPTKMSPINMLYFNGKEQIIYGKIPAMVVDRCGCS
Experimental: The human recombinant Myostatin-Fc protein (Sino Biological, #50441-M01H) was immobilized on the surface of a CM5 sensor chip at 2210.3 response units (RUs) using an EDC/NHS amine coupling kit, following the manufacturer’s instructions. […] Data analysis was performed using Biacore T200 Evaluation Software version 3.1 (Cytiva).

SAMP8 mice = test: Sirius Red collagen deposition in muscle; format: in vivo, mouse; settings: normalized to SAMR1 = 100%, oral gavage 45 weeks, 20 mg in 200 µL PBS, n = 5, mean ± SD
Experimental: Eight week old male senescence-accelerated mouse-prone 8 (SAMP8)/Ta Slc and senescence-accelerated mouse-resistant 1 (SAMR1)/Ta Slc mice (weighing 30 ± 2 g) were purchased from Central Lab Animal Inc. (Seoul, Korea) and housed at 24 °C in cages under a 12/12 h light/dark cycle with ad libitum access to food and water. […] Mice in all groups were dosed once daily by oral gavage for 45 weeks. […] This study was approved by the Institutional Animal Care and Use Committee (approval number CG-R22-001).
Quadriceps (Quad) and gastrocnemius (Gas) muscle tissues were harvested and immersion-fixed in 10% neutral buffered formalin at 4 °C for 24 h. Following fixation, the tissues were dehydrated through a graded series of ethanol, cleared in xylene, and embedded in paraffin. Paraffin-embedded tissues were sectioned at a thickness of 5 μm. The tissue sections mounted on slides were deparaffinized, washed, and stained with hematoxylin (Dako, S3309) and eosin (Thermo Fisher Scientific, #6766007) (H&E). To assess the degree of muscle fibrosis, they were also stained using a Sirius Red Stain Kit (Abcam, ab150681) according to the manufacturer’s instructions. […] For each animal, three images were randomly selected from the stained sections, and the total stained area per image, rather than individual muscle fibers, was quantified using ImageJ software.

[2] = test system: patients with muscle atrophy (ICD-10-CM code: M62.5); test: Clinical trial: muscle mass by DEXA; format: in vivo, human
Experimental: The study was conducted at Biosite Research Private Limited (Shanthipura, India) under the New Drugs and Clinical Trials Rules (2019) issued by CDSCO (Ministry of Health and Family Welfare, Government of India), and in compliance with GCP, applicable local regulatory requirements, the Declaration of Helsinki ([…]), ICMR guidelines (2017), and ICH-GCP E6 (R2). Ethical approval was obtained from the Excel Hospital Institutional Ethics Committee (ECR/1670/Inst/TG/2022) and ethics committees of other participating centers, and the trial was prospectively registered (CTRI/2024/01/061919). All participants provided written informed consent prior to any study procedures. […] Efficacy endpoints were evaluated as changes from baseline to Week 12; efficacy analyses were conducted in the per-protocol population, and safety analyses included all randomized participants who received at least one dose of study product (Supplementary Figure S2). […] Continuous variables were summarized as N, mean (SD), median, minimum, and maximum, and categorical variables as n (%), with percentages calculated as n/N × 100. Changes from baseline to Week 12 in DEXA-assessed muscle mass, 6-m walk test, and handgrip strength were analyzed using ANCOVA, adjusting for the corresponding baseline value. […]

[3] = test system: patients with muscle atrophy (ICD-10-CM code: M62.5); test: Clinical trial: safety, treatment emergent adverse events; format: in vivo, human; settings: 12 weeks, 200 mg/day, N=40
Description: All participants provided written informed consent prior to any study procedures. Key eligibility criteria included adults aged ≥18 years with low muscle mass by DEXA (men: <7.0 kg/m^2; women: <5.4 kg/m^2) and either low handgrip strength (men: <28 kg; women: <18 kg) or low physical performance (6-m walk speed <1.0 m/s). Major exclusion criteria included uncontrolled systemic disease, musculoskeletal or neurological disorders, recent anabolic steroid use, and concomitant medications known to affect protein metabolism; full inclusion and exclusion criteria are provided in Supplementary Table S1. Of 89 patients screened, seven were screen failures and two withdrew prior to randomization; 80 eligible participants were enrolled and proceeded to the baseline/randomization visit (mean age 38.83 ± 9.91 years; range 23–69).
The study was double-blind; participants, investigators, and study staff were unaware of treatment allocation throughout the trial.
Efficacy endpoints were evaluated as changes from baseline to Week 12; efficacy analyses were conducted in the per-protocol population, and safety analyses included all randomized participants who received at least one dose of study product (Supplementary Figure S2). Of 80 randomized participants, 75 completed the study.

[4] = Day 3, 100 μM, fluorescence intensity, mean ± SD

## EAEYEHL-OH [Myoki]
C2C12 cells; [4]
  increase in MYH3 expression compared to the control: 191% ± 10.66%
  increase in MyoD expression compared to the control: 190% ± 46.28%
C2C12 cells; Day 6
  increase in MYH3 fluorescence staining compared to the control: 153%
[1]; seven concentrations, CM5 chip, 2210.3 RU immobilized, 30 μL/min, steady-state affinity fit, Kd not given
  SPR binding to myostatin: binds to Myostatin
[1]; SPR
  association and dissociation: relatively rapid association and dissociation
  response units (RUs): increased dose-dependently
SAMP8 mice; untreated SAMP8 185% ± 10.61%, difference not statistically significant
  collagen deposition, quadriceps: 151% ± 28.82%
SAMP8 mice; untreated SAMP8 291% ± 19.72%
  collagen deposition, gastrocnemius: 194% ± 22.84%
[2]; Myoki + arginine + maltodextrin, 200 mg peptide/day oral, N = 38, 95% CI (736.90 to 1124.7), placebo 225
  Lean muscle mass, change from baseline to Week 12 (LS mean): 930.8 g
[2]; Week 12, 200 mg/day, ANCOVA, p <0.01
  Lean muscle mass, difference between placebo and treatment (95% CI): 705.8 g
[3]
  TEAEs related to the study product: No TEAEs were assessed as related to the study product
  serious TEAEs: no serious TEAEs were reported
  severity and outcome of TEAEs: all TEAEs were mild in severity and resolved

From article PMC12935919 (Frontiers in Pharmacology, 2026)
